# Source: US6730792B2, “β3 adrenergic agonists” (Eli Lilly and Company, priority 2000, dated 2004)
# Biological target: T1, human β3 adrenergic receptor (Homo sapiens, UniProt P13945)
# T1 construct: expressed in transfected cells; host or cells: DXB-11 Chinese hamster ovary (CHO) cell line, stably transfected (phd expression vector)
# Experiment: whole cell receptor coupled c-AMP assay, human β3 receptor in CHO cells (EC50, Emax relative to isoproterenol)
# Type: cell-based
# Conditions: Emax ± standard error of the mean; average of at least 3 runs except where n = 1; compound tested in the isolated form listed
# Excerpt: The genes encoding the human β1-adrenergic receptor (Frielle et al., Proc. Natl. Acad. Sci., 84:7920-7924, 1987), the human β2-adrenergic receptor (Kobika et al., Proc. Natl. Acad. Sci., 84:46-50, 1987, Emorine et al., Proc. Natl. Acad. Sci., 84:6995-6999, 1987) and the human β3 adrenergic receptor (Granneman et al., Molecular Pharmacology, 44(2):264-70, 1993) are individually subcloned into a phd expression vector (Grinnell et al., Bio/Technology, 5:1189-1192, 1987) and transfected into the DXB-11 Chinese hamster ovary (CHO) cell line by calcium phosphate precipitation methodology. The stably transfected cells are grown to 95% confluency in 95% Dulbecco's modified Eagles Medium (DMEM), 5% fetal bovine serum and 0.01% proline. Media is removed and the cells are washed with phosphate buffered (pH 7.4) saline (without magnesium and calcium). Cells are then lifted using an enzyme free cell dissociation solution (Specialty Media, Lavallette, N.J.) and pelleted by centrifugation.
# Cells from each of the above cell lines are resuspended and added (20,000/well) to a 96-well plate. Cells are incubated at 37° C. with representative compounds of the invention for 20 minutes in buffer (Hank's balanced salt solution, 10 mM HEPES, 0.1% BSA, 1 mM L-ascorbic acid, 0.2% dimethyl sulfoxide, 1 mm 3-isobutyl-1-methylxanthine, pH 7.4). After halting the incubation with quench buffer (50 mM Na Acetate, 0.25% Triton X-100, pH 5.8), the c-AMP level is quantified by scintillation proximity assay (SPA) using a modification of the commercially available c-AMP kit (Amersham, Arlington Heights, Ill.) with rabbit anti-cAMP antibody (ICN Biomedicals, Aurora, Ohio) for the kit.
# Sigmoidal dose response curves, from the whole cell receptor coupled c-AMP assay are fit to a four parameter logistic equation using non linear regression: y=(a−d)/(1+(Dose/c)^b)+d where a and d are responses at zero and maximal dose, b is the slope factor and c is the EC50 as previously described (DeLean et al., Am. J. Physiol., 235, E97-E102, 1978). EC50 is assessed as the concentration producing 50% of the maximum response to each agonist.
# Isoproterenol is accepted in the art as a non-selective β3 agonist and is widely used as a comparator in evaluating the activity of compounds. See Trends in Pharm. Sci., 15:3, 1994. The % intrinsic activity (Emax) of representative compounds of the invention is assessed relative to isoproterenol by the compound's maximal response divided by the isoproterenol maximal response times 100.
# T1 sequence (P13945 whole entry): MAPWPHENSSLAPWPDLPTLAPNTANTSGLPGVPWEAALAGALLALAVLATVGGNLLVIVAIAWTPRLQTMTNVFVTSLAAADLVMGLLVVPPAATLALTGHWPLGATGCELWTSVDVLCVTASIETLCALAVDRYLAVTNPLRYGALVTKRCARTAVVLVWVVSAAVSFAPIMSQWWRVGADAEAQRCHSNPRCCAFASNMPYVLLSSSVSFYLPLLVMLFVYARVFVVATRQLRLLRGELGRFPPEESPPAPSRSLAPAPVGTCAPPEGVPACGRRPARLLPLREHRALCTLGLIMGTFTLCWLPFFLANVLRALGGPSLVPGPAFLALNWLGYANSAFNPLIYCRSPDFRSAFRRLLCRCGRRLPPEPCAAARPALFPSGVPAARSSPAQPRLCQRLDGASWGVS
row,SMILES,Emax (%) ± SEM
1,CC(C)(Cc1ccc(Oc2ccccn2)cc1)NC[C@H](O)COc1ccccc1-c1cccs1.O=C(O)C(F)(F)F [Example 1],58.1 ± 2.6%
2,CC(C)(Cc1ccc(Oc2ccccn2)cc1)NC[C@H](O)COc1ccccc1-c1ccno1.O=C(O)C(F)(F)F [Example 2],43.6 ± 9.7%
3,Cn1nccc1-c1ccccc1OC[C@@H](O)CNC(C)(C)Cc1ccc(Oc2ccc(C#N)cn2)cc1 [Example 3],<10%
4,Cn1ccc(-c2ccccc2OC[C@@H](O)CNC(C)(C)Cc2ccc(Oc3ncccc3C#N)cc2)n1 [Example 4],55.0 ± 1.3%
5,CC(C)(Cc1ccc(Oc2ccc(C#N)cn2)cc1)NC[C@H](O)COc1ccccc1-c1cccs1 [Example 5],66.1 ± 4.8%
6,CC(C)(Cc1ccc(Oc2ccc(C#N)cn2)cc1)NC[C@H](O)COc1ccccc1-c1nccs1 [Example 6],58.7 ± 1.8%
7,CC(C)(Cc1ccc(Oc2ccc(C#N)cn2)cc1)NC[C@H](O)COc1ccccc1-c1ccno1 [Example 7],48.8 ± 2.5%
8,CC(C)(Cc1ccc(Oc2ccc(C#N)cn2)cc1)NC[C@H](O)COc1ccccc1-c1ccn[nH]1 [Example 8],33.7 n = 1%
9,CC(C)(Cc1ccc(Oc2ccc(C#N)cn2)cc1)NC[C@H](O)COc1ccccc1-c1cc2ccccc2[nH]1 [Example 9],23.7 ± 10.0%
10,CC(C)(Cc1ccc(Oc2ccc(C#N)cn2)cc1)NC[C@H](O)COc1ccccc1-c1ccncn1 [Example 10],35.1 ± 0.9%
11,CC(C)(Cc1ccc(Oc2ccc(C#N)cn2)cc1)NC[C@H](O)COc1ccccc1N1CCCC1=O [Example 11],18.0 ± 6.5%
12,CC(C)(Cc1ccc(Oc2ccc(C#N)cn2)cc1)NC[C@H](O)COc1ccccc1-c1ccon1.Cl [Example 12],64.8 ± 6.3%
13,CC(C)(Cc1ccc(Oc2ccc(C#N)cn2)cc1)NC[C@H](O)COc1ccccc1-c1cnco1.Cl [Example 13],54.8 ± 1.7%
14,Cn1nccc1-c1ccccc1OC[C@@H](O)CNC(C)(C)Cc1ccc(Oc2ccc(C(N)=O)cn2)cc1 [Example 14],16.9 n = 1%
15,Cn1ccc(-c2ccccc2OC[C@@H](O)CNC(C)(C)Cc2ccc(Oc3ncccc3C(N)=O)cc2)n1 [Example 15],70.9 ± 3.0%
16,CC(C)(Cc1ccc(Oc2ccc(C(N)=O)cn2)cc1)NC[C@H](O)COc1ccccc1-c1cccs1 [Example 16],67.6 ± 4.7%
17,CC(C)(Cc1ccc(Oc2ccc(C(N)=O)cn2)cc1)NC[C@H](O)COc1ccccc1-c1nccs1 [Example 17],62.9 ± 2.2%
18,CC(C)(Cc1ccc(Oc2ccc(C(N)=O)cn2)cc1)NC[C@H](O)COc1ccccc1-c1ccno1 [Example 18],49.1 ± 2.9%
19,CC(C)(Cc1ccc(Oc2ccc(C(N)=O)cn2)cc1)NC[C@H](O)COc1ccccc1-c1ccn[nH]1 [Example 19],31.3 n = 1%
20,CC(C)(Cc1ccc(Oc2ccc(C(N)=O)cn2)cc1)NC[C@H](O)COc1ccccc1-c1cc2ccccc2[nH]1 [Example 20],30.4 ± 2.5%
21,CC(C)(Cc1ccc(Oc2ncccc2C(N)=O)cc1)NC[C@H](O)COc1ccccc1-c1cc2ccccc2[nH]1 [Example 21],48.0 ± 2.0%
22,CC(C)(Cc1ccc(Oc2ccc(C(N)=O)cn2)cc1)NC[C@H](O)COc1ccccc1N1CCCC1=O [Example 22],22.0 ± 5.3%
23,CC(C)(Cc1ccc(Oc2ccc(C(N)=O)cn2)cc1)NC[C@H](O)COc1ccccc1N1CCOCC1.Cl.Cl [Example 23],29.9 ± 3.2%
24,CC(C)(Cc1ccc(Oc2ccc(C(N)=O)cn2)cc1)NC[C@H](O)COc1ccccc1N1CCCCC1.Cl.Cl [Example 24],17.3 ± 3.2%
25,CC(C)(Cc1ccc(Oc2ccc(C(N)=O)cn2)cc1)NC[C@H](O)COc1ccccc1N1CCNCC1.Cl.Cl.Cl [Example 25],13.7 ± 3.5%
26,CC(C)(Cc1ccc(Oc2ccc(C(N)=O)cn2)cc1)NC[C@H](O)COc1ccccc1-c1nc2ccccc2o1 [Example 26],41.4 ± 6.6%
27,CC(C)(Cc1ccc(Oc2ccc(C(N)=O)cn2)cc1)NC[C@H](O)COc1ccccc1-c1nc2ccccc2s1 [Example 27],20.8 ± 8.5%

row,SMILES,Emax (%) ± SEM
1,CC1(C)COC(c2ccccc2OC[C@@H](O)CNC(C)(C)Cc2ccc(Oc3ccc(C(N)=O)cn3)cc2)=N1 [Example 28],83.4 ± 7.2%
2,CC(C)(Cc1ccc(Oc2ccc(C(N)=O)cn2)cc1)NC[C@H](O)COc1ccccc1-n1cccc1.Cl [Example 29],48.4 ± 5.9%
3,CC(C)(Cc1ccc(Oc2ccc(C(N)=O)cn2)cc1)NC[C@H](O)COc1ccccc1-c1nnco1 [Example 30],51.7 ± 2.7%
4,CC(C)(Cc1ccc(Oc2ccc(C(N)=O)cn2)cc1)NC[C@H](O)COc1cc(Cl)ccc1-c1nnco1 [Example 31],12.1 n = 1%
5,CC(C)(Cc1ccc(Oc2ccc(C(N)=O)cn2)cc1)NC[C@H](O)COc1ccccc1-c1ccon1.Cl [Example 32],54.2 ± 5.0%
6,CC(C)(Cc1ccc(Oc2ccc(C(N)=O)cn2)cc1)NC[C@H](O)COc1ccccc1-c1ccnc(N)n1 [Example 33],26.2 ± 4.3%
7,CC(C)(Cc1ccc(Oc2ccc(C(N)=O)cn2)cc1)NC[C@H](O)COc1cccc(-c2cc[nH]n2)c1 [Example 34],<10%
8,CC(C)(Cc1ccc(Oc2ccc(C(N)=O)cn2)cc1)NC[C@H](O)COc1cccc(-c2ccno2)c1 [Example 35],28.9 n = 1%
9,CC(C)(Cc1ccc(Oc2ccc(C(N)=O)cn2)cc1)NC[C@H](O)COc1ccc(-c2ccno2)cc1 [Example 36],17.5 n = 1%
10,CC(C)(Cc1ccc(Oc2ccc(C(N)=O)cn2)cc1)NC[C@H](O)COc1cccc(-c2ccnc(N)n2)c1 [Example 38],20.5 n = 1%
11,CC(C)(Cc1ccc(Oc2ccc(C(N)=O)cn2)cc1)NC[C@H](O)COc1ccccc1C1=CC(=O)OC1.Cl [Example 41],33.5 ± 4.2%
12,CC(C)(Cc1ccc(Oc2ccc(C(N)=O)cn2)cc1)NC[C@H](O)COc1ccccc1-c1nncs1.O=C(O)C(=O)O [Example 42],43.3 ± 2.7%
13,CC(C)(Cc1ccc(Oc2ccc(C(N)=O)cn2)cc1)NC[C@H](O)COc1ccccc1-c1ccoc1.Cl [Example 43],61.9 ± 2.5%
14,CC(C)(Cc1ccc(Oc2ccc(C(N)=O)cn2)cc1)NC[C@H](O)COc1ccccc1-c1csnn1.O=C(O)C(=O)O [Example 44],22.1 ± 3.3%
15,CC(C)(Cc1ccc(Oc2ccc(C(N)=O)cn2)cc1)NC[C@H](O)COc1ccccc1-c1ncco1 [Example 45],66.5 ± 3.9%
16,CC(C)(Cc1ccc(Oc2ccc(C(N)=O)cn2)cc1)NC[C@H](O)COc1ccccc1-c1cnco1.Cl [Example 46],64.7 ± 1.3%
17,CC(C)(Cc1ccc(Oc2ccc(C(N)=O)cn2)cc1)NC[C@H](O)COc1ccccc1-n1cccn1.Cl [Example 47],35.5 ± 5.5%
18,Cn1nccc1-c1ccccc1OC[C@@H](O)CNC(C)(C)Cc1ccc(Oc2ncccc2C#N)cc1 [Example 48],14.4 n = 1%
19,Cn1ccc(-c2ccccc2OC[C@@H](O)CNC(C)(C)Cc2ccc(Oc3ccc(C#N)cn3)cc2)n1 [Example 49],59.1 n = 1%
20,CC(C)(Cc1ccc(Oc2ncccc2C#N)cc1)NC[C@H](O)COc1ccccc1-c1cccs1 [Example 50],78.9 ± 2.5%
21,CC(C)(Cc1ccc(Oc2ncccc2C#N)cc1)NC[C@H](O)COc1ccccc1-c1cccs1.Cl [Example 51],74.1 ± 3.3%
22,CC(C)(Cc1ccc(Oc2ncccc2C#N)cc1)NC[C@H](O)COc1ccccc1-c1nccs1 [Example 52],70.1 ± 3.3%
23,CC(C)(Cc1ccc(Oc2ncccc2C#N)cc1)NC[C@H](O)COc1ccccc1-c1ccno1 [Example 53],74.5 ± 12.5%
24,CC(C)(Cc1ccc(Oc2ncccc2C#N)cc1)NC[C@H](O)COc1ccccc1-c1ccno1.Cl [Example 54],66.8 ± 6.8%
25,CC(C)(Cc1ccc(Oc2ncccc2C#N)cc1)NC[C@H](O)COc1ccccc1-c1ccn[nH]1 [Example 55],37.5 n = 1%
26,CC(C)(Cc1ccc(Oc2ncccc2C#N)cc1)NC[C@H](O)COc1ccccc1-c1cc2ccccc2[nH]1 [Example 56],30.1 ± 2.1%
27,CC(C)(Cc1ccc(Oc2ncccc2C#N)cc1)NC[C@H](O)COc1ccccc1-c1ccncn1 [Example 57],41.8 ± 5.6%
